Experimental data: patent US20260028384A1, “USE OF IL-2 VARIANT FOR TREATING KIDNEY TRANSPLANT REJECTION” (Visterra, Inc., priority 2024, published 2026)
Entries after “also recorded” stand apart in the source; their conditions may differ.

Key:
[1] = system: kidney allograft; assay: Kidney allograft survival after transplant and discontinuation of treatment, rapamycin discontinued on Day 30 (Example 3); format: in vivo, Rhesus monkeys
Excerpt: However, rapamycin administration was discontinued on Day 30 post-transplant. A control group was only administered the daily rapamycin.

[2] = system: kidney allograft
Excerpt: The effect of an exemplary alpha-biased IL-2-Fc fusion protein (SEQ ID NO: 27) on prolonged kidney allograft survival following transplant was studied in naïve Rhesus monkeys, as outlined in FIG. 1B. For the kidney transplant, animals were paired with ABO-compatible donors and mismatched for MHC haplotype of class I loci while allowing 1 or 2 MHC II haplotype matching. This degree of MHC mismatch is known to elicit a robust graft rejection and sensitization.
The alpha-biased IL-2-Fc fusion protein was administered subcutaneously at a dose of 50 μg/kg both pre- and post-transplant on Days −6, 1, 15, and 29. The kidney transplant was performed on Day 0, and rapamycin was administered daily by intramuscular injection, targeting a trough concentration of approximately 8-12 ng/mL. Rapamycin administration was discontinued on Day […] post-transplant. As a control, five monkeys were only administered the daily rapamycin. Kidney allograft biopsies were performed at 1-month and 3-months post-transplant. Blood samples were collected regularly, and samples were either analyzed at ambient temperature or frozen and stored.

[3] = system: regulatory T cells (Tregs); assay: Immunomodulatory effect (Treg expansion) in naïve Rhesus monkeys, flow cytometry; format: in vivo
Method: An exemplary alpha-biased IL-2 variant fused to an Fc domain of human IgG1 was prepared with a full length sequence according to SEQ ID NO: 27. The immunomodulatory effect of the exemplary alpha-biased IL-2-Fc fusion protein was assessed in naïve Rhesus monkeys by a study outlined in FIG. 1A. […] Rapamycin was also administered daily from Day 0 by intramuscular injections, targeting a trough level of approximately 8-12 ng/mL. Treg populations (CD4^+CD25^+FoxP3^+ and CD4^+CD25^+CD127^lo) and other immune cell populations including CD3^+/CD8^+ cytotoxic T cells (CTL) were analyzed using flow cytometry.

| Compound | time sCR and BUN levels stable post-transplant, most cases ([1]; 50 μg/kg s.c. Days −6, 1, 15, 29 plus daily rapamycin until Day 30, most cases, FIG. 10A) | time sCR and BUN levels stable post-transplant, some cases ([1]; rapamycin discontinued Day 30, some cases) [days] | time sCR and BUN levels stable following complete withdrawal of immunosuppressive drugs ([1]; some cases) | survival post-transplant, one Rhesus monkey ([2]; 50 μg/kg plus daily rapamycin until Day 180, longest surviving monkey) [days] | kidney graft survival, at least three of four Rhesus monkeys ([2]; 50 μg/kg plus daily rapamycin, at least three of four monkeys) | time creatinine and BUN / transplanted kidney stable post-transplant, some cases ([2]; 50 μg/kg s.c. Days −6, 1, 15, 29 plus daily rapamycin until Day 180, some cases) | time creatinine and blood urea nitrogen (BUN) stable post-transplant, most cases ([2]; 50 μg/kg s.c. Days −6, 1, 15, 29 plus daily rapamycin, most cases, FIGS. 4A, 4B) | Tregs (FoxP3+ CD4+ and CD127lo CD4+) in PBMCs ([2]; after administration, post-transplant, FIG. 8) | CD20+ B cells ([2]; after kidney transplant, FIG. 5) | histopathology of monkey terminated early for excessive body weight loss ([2]; one monkey of the fusion protein group) | blood chemistry parameters (ALT, ALP, GGT, bilirubin, protein, albumin, globulin, cholesterol, phosphate, calcium, glucose, sodium, potassium, chloride) ([2]; rhesus monkey, in vivo) | hematology parameters (hemoglobin, hematocrit, blood cell counts) ([2]; rhesus monkey, in vivo) | percent of Tregs (CD4+CD25+FoxP3+) ([3]; 5-7 days after administration, increased from 6.21% pre-treatment, s.c. 50 or 100 μg/kg with daily rapamycin, FIG. 2A) [%] | tachyphylaxis of Treg number and percent on repeated dosing ([3]; FIGS. 3A and 3B, after each dose) | cytotoxic T cells (CTLs) during the increase in Tregs ([3]; over the course of treatment) | ratio of Tregs:CD8 cells ([3]; over the course of treatment, 50 or 100 μg/kg, FIG. 2B) | absolute number of Tregs ([3]; over the course of treatment, s.c. Days 0, 14, 28 at 50 or 100 μg/kg, daily rapamycin, FIG. 2B) | time to termination post-transplant (increases in sCR and BUN or excessive weight loss) ([1]; control group, daily rapamycin only, FIG. 10B) |
| --- | --- | --- | --- | --- | --- | --- | --- | --- | --- | --- | --- | --- | --- | --- | --- | --- | --- | --- |
| alpha-biased IL-2-Fc fusion protein: IL2 Variant (H16L/V69A/Q74P/C125S) fused to IgG1 Fc (N297G) allotype m3; full length sequence SEQ ID NO: 27 | at least 40 days | ≥ 110 | up to 82 days | 235 | over 50 days | over 235 days | over 50 days | increase in both percent and number | decrease | did not indicate kidney rejection | fell within the expected range | normally fell within their expected ranges | 38.5 | without signs of tachyphylaxis | did not coincide with an increase | significantly increased in a dose-dependent manner | significantly increased in a dose-dependent manner; also recorded: statistically significant and dose dependent |  |
| CO[C@H]1C[C@@H]2CC[C@@H](C)[C@@](O)(O2)C(=O)C(=O)N2CCCC[C@H]2C(=O)O[C@H]([C@H](C)C[C@@H]2CC[C@@H](O)[C@H](OC)C2)CC(=O)[C@H](C)/C=C(\C)[C@@H](O)[C@@H](OC)C(=O)[C@H](C)C[C@H](C)/C=C/C=C/C=C/1C [rapamycin, reference compound] |  |  |  |  |  |  |  |  |  |  |  |  |  |  |  |  |  | less than 30 days |
